From PMC10107299, “Neutralizing the Impact of the Virulence Factor LecA from Pseudomonas aeruginosa on Human Cells with New Glycomimetic Inhibitors” (Angewandte Chemie (International Ed. in English), 2023)
“And” between values parts separate entries of the source, which are not always exact repeats. Equal values may be shown once. Read-outs that look alike come from different tables or passages of the source.

Tests used:
[1] = Plasma protein binding (rapid equilibrium device), murine plasma; assay type: in vitro ADME, mouse; settings: CD-1, mouse, plasma, read-out: PPB Mouse (converted)
Description: (§1) mixer (Eppendorf). Acetonitrile and caffeine were dispensed using a Mantis Formulatrix. Then samples were centrifuged for 20 min at 2.270 x g at 4 °C and the supernatants were transferred to 96-well Greiner V-bottom plates. Peak areas of each compound and of the internal standard were analyzed using the MultiQuant 3.0 software (AB Sciex). Peak areas of the respective compound were normalized to the internal standard peak area and to the respective peak areas at time point 0 min: (C/D)/(A/B) with A: peak area of the compound at time point 0 min, B: peak area of the internal standard at time point 0 min, C: peak area of the compound at the respective time point, D: peak area of the internal standard at the respective time point. […]
(§2) Assessment of plasma protein binding
(§3) Plasma protein binding was assessed using the rapid equilibrium device (RED) system from ThermoFisher. Compounds were dissolved in DMSO. […]
(§4) high plasma protein binding. Compounds were diluted in murine plasma (from CD-1 mice, pooled) or in human plasma (human donors, both genders, pooled) to a final concentration of 1 µM. Dialysis buffer and plasma samples were added to the respective chambers according the manufacturer’s protocol. The RED plate was sealed with a tape and incubated at 37 °C for 2 hours at 800 rpm on an Eppendorf MixMate vortex-mixer. Then samples were withdrawn from the respective chambers. To 25 µL of each dialysis sample, 25 µL of plasma and to 25 µL of plasma sample, 25 µL of dialysis buffer was added. Then 150 µL ice-cold extraction solvent (ACN/H2O (90:10) containing 12.5 ng/mL caffeine as internal standard) was added. Samples were incubated for 30 min on ice. Then samples were centrifuged at 4 °C at 2270 x g for 10 min.
(§5) Supernatants were transferred to Greiner V-bottom 96-well plates and sealed with a tape. The […]
(§6) percentage of bound compound was calculated as follows:
(§7) (1) % free = (concentration buffer chamber / concentration plasma chamber) *100 […]
(§8) Samples were analyzed using an Agilent 1290 Infinity II HPLC system coupled to an AB Sciex QTrap 6500plus mass spectrometer. LC conditions were as follows: column: Agilent […]
(§9) Zorbax Eclipse Plus C18, 50x2.1 mm, 1.8 µm; temperature: 30 °C; injection volume: 5 µL per […]
(§10) sample; flow rate: 700 µL/min. Samples were run under acidic and buffered conditions.
(§11) Solvents for acidic conditions: A1: water + 0.1% formic acid; solvent B1: 95% acetonitrile/5% […]
(§12) H2O + 0.1% formic acid; solvents for buffered conditions: A2: 95% water + 5% acetonitrile + […]
(§13) 5 mM ammonium acetate + 40 µL/L acetic acid; B2: 95% acetonitrile + 5% water + 5 mM […]
(§14) ammonium acetate + 40 µL/L acetic acid. The same gradient was applied for acidic and […]
(§15) buffered conditions: 99% A at 0 min, 99% A until 1 min, 99% - 0% A from 1 min to 4.0 min, […]
(§16) 0% A until 5.0 min. Mass transitions for controls and compounds are depicted in the following […]

[2] = Plasma protein binding (rapid equilibrium device), human plasma; assay type: in vitro ADME; settings: both sexes, human, plasma, read-out: PPB Human (converted)
Description: as §1, §2, §3, §4, §5, §6, §7, §8, §9, §10, §11, §12, §13, §14, §15, §16

in vitro = in vitro ADME; settings: pH 7.4, 37 °C
Description: Then, we analyzed the stability of the compounds in plasma. […] The observed increase in plasma stability of the tested amide derivatives compared to bisacylhydrazone 14 supports our design hypothesis for the isosteric replacement of the bisacylhydrazone linking motif. […]
Each compound dissolved in DMSO was added to mouse plasma (pH 7.4, 37 °C) or to human plasma (pH 7.4, 37 °C) to yield a final concentration of 1 µM. In addition, procaine and procainamide (dissolved in DMSO) were added to mouse plasma or to human plasma (pH 7.4, 37 °C) to yield a final concentration of 1 µM. Procaine served as positive control as it is unstable in mouse plasma. Procainamide served as negative control as it is stable in mouse plasma. The samples were incubated for 0 min, 15 min, 30 min, 60 min, 90 min, 120 min and 240 min at 37 °C. At each time point, 10 µl of the respective sample was extracted with 90 µL acetonitrile containing 12.5 ng/mL caffeine as internal standard for 5 min at 2000 rpm on a MixMate vortex […]
as §1
2 hours at 800 rpm on an Eppendorf MixMate vortex-mixer. Then samples were withdrawn from the respective chambers. To 25 µL of each dialysis sample, 25 µL of plasma and to 25 µL of plasma sample, 25 µL of dialysis buffer was added. Then 150 µL ice-cold extraction solvent (ACN/H2O (90:10) containing 12.5 ng/mL caffeine as internal standard) was added. Samples were incubated for 30 min on ice. Then samples were centrifuged at 4 °C at 2270 x g for 10 min.

LecA = target: T1, LecA (Pseudomonas aeruginosa, UniProt Q05097); assay: Inhibition of LecA-AF488 binding to H1299 cells, flow cytometry; assay type: cell-based; settings: for IC50: IC50 for inhibition of LecA binding to H1299 cells, N=3; for IC50 / Decrease of LecA binding to H1299 cells: 0.16 μM LecA-AF488, flow cytometry; for Inhibition of lectin binding to the cells: 7.5 μM and above, flow cytometry
T1 construct: made in house
Description: Next, we investigated the two most promising compounds H2 and L2 for their efficacy to inhibit LecA binding to H1299 human lung epithelial cells using flow cytometry and confocal microscopy. To this end, LecA was fluorescently labelled with Alexa Fluor 488 NHS ester (LecA‐AF488), incubated with varying concentrations of the inhibitors (100 nM to 10 μM) and subsequently added to the cells.
For flow cytometry analysis, inhibitors were preincubated with 0.16 μM LecA prior addition to the H1299 cells. After incubation for 30 min, fluorescence intensity was recorded at the flow cytometer. […] In contrast, 10 μM of the corresponding monovalent ligands G2 and K2 were required for 50 % inhibition (Figure S10).
H1299 cells were detached with 2 mL of 1.5 mM EDTA in PBS, 1.2 × 10^5 cells were counted and transferred to a U-bottom 96 well plate (Sarstedt AG & Co. KG, Numbrecht, Germany).
For flow cytometry assay, the optimal LecA concentration was established following a lectin titration (0.04–0.5 µM LecA-AF488) with H1299 cells. The histogram of fluorescence intensity […]
µM LecA-AF488 was used in flow cytometry experiments. LecA-AF488 was preincubated with PNPG, G2, K2, H2 or L2 in RPMI medium, for 20 min at room temperature and protected from light. The ligand-LecA solution was then added to the cells and further incubated for 30 min at 4 °C. H1299 cells were resuspended with medium in absence of lectin or inhibitor represented the negative assay control, while cells incubated only with LecA-AF488 (no inhibitor) served as the positive control. Subsequently, cells were centrifuged at 1600 × g for 3 min at 4 °C to remove unbound lectin. The samples were then washed twice with ice-cold FACS buffer (PBS (-/-) supplemented with 3% FCS (v/v)). After the last washing step, the cells were re-suspended in FACS buffer and transferred to FACS tubes (Kisker Biotech GmbH Co. KG, Steinfurt, Germany) on ice and in absence of light. The fluorescence intensity of treated cells was measured with FACS Gallios from Beckman Coulter. […]

[3] = human plasma, read-out: Plasma stability t1/2 Human
[4] = mouse plasma, read-out: Plasma stability t1/2 Mouse

T1 sequence (Q05097 whole entry): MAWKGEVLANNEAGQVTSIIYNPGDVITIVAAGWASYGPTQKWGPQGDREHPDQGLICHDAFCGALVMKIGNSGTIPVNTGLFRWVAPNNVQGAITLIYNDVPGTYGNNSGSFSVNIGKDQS

Row | Compound | fraction unbound at 2 h, 1 µM [1] | fraction unbound at 2 h, 1 µM [2] | half-life at 1 µM (in vitro; [3]) [h] | half-life at 1 µM (in vitro; [4]) [h] | IC50 (LecA) | Decrease of LecA binding to H1299 cells (LecA; 250 nM inhibitor) | Decrease of LecA binding to H1299 cells (LecA; 1 μM inhibitor) [%] | Inhibition of lectin binding to the cells (LecA)
1 | O=C(/C=C/c1ccc(O[C@@H]2O[C@H](CO)[C@H](O)[C@H](O)[C@H]2O)cc1)Nc1ccc(OCCOc2ccc(NC(=O)/C=C/c3ccc(O[C@@H]4O[C@H](CO)[C@H](O)[C@H](O)[C@H]4O)cc3)cc2)cc1 [Compound D1] | 0.006 | 0.004 | 3.73 | 3 | – | – | – | –
2 | O=C(CCc1ccc(O[C@@H]2O[C@H](CO)[C@H](O)[C@H](O)[C@H]2O)cc1)Nc1ccc(OCCOc2ccc(NC(=O)CCc3ccc(O[C@@H]4O[C@H](CO)[C@H](O)[C@H](O)[C@H]4O)cc3)cc2)cc1 [Compound D2] | – | 0.005 | 2.21 | 3.04 | – | – | – | –
3 | COc1ccc(NC(=O)CCc2ccc(O[C@@H]3O[C@H](CO)[C@H](O)[C@H](O)[C@H]3O)cc2)cn1 [Compound G2] | – | – | – | – | 2800 nM and 2790 nM | – | – | –
4 | O=C(/C=C/c1ccc(O[C@@H]2O[C@H](CO)[C@H](O)[C@H](O)[C@H]2O)cc1)Nc1ccc(OCCOc2ccc(NC(=O)/C=C/c3ccc(O[C@@H]4O[C@H](CO)[C@H](O)[C@H](O)[C@H]4O)cc3)cn2)nc1 [Compound H1] | – | – | > 4 | > 3 | – | – | – | –
5 | O=C(CCc1ccc(O[C@@H]2O[C@H](CO)[C@H](O)[C@H](O)[C@H]2O)cc1)Nc1ccc(OCCOc2ccc(NC(=O)CCc3ccc(O[C@@H]4O[C@H](CO)[C@H](O)[C@H](O)[C@H]4O)cc3)cn2)nc1 [Compound H2] | 0.03 | 0.005 | 3.58 | 1.35 | 540 nM | 16% | 50 | complete inhibition
6 | Cc1ccc(NC(=O)CCc2ccc(O[C@@H]3O[C@H](CO)[C@H](O)[C@H](O)[C@H]3O)cc2)cc1S(=O)(=O)O [Compound K2] | – | – | – | – | 1900 nM and 1890 nM | – | – | –
7 | O=C(CCc1ccc(O[C@@H]2O[C@H](CO)[C@H](O)[C@H](O)[C@H]2O)cc1)Nc1ccc(CCc2ccc(NC(=O)CCc3ccc(O[C@@H]4O[C@H](CO)[C@H](O)[C@H](O)[C@H]4O)cc3)cc2S(=O)(=O)O)c(S(=O)(=O)O)c1 [Compound L2] | 0.86 | 0.62 | > 4 | > 4 | 560 nM | more than 30% | 50 | complete inhibition
